Reference: patent publication US20190031599A1, “INDANE DERIVATIVES AS MGLUR7 MODULATORS” (Takeda Pharmaceutical Company Limited, priority 2016, published 2019)
Where a name gives a salt, the structure may show the parent alone.

The molecules below were run against T1, human mGluR7 (Homo sapiens, UniProt Q14831) (assay: mGluR7 assay: CRE-directed luciferase reporter gene assay, reduction of forskolin stimulated cAMP production). Conditions: stable CHO cell line expressing the CRE-luc reporter and human mGluR7 genes; decrease of forskolin stimulated luminescence; 10-point concentration-response, duplicate wells.
T1 construct: expressed in transfected cells
T1 sequence (Q14831 35-915): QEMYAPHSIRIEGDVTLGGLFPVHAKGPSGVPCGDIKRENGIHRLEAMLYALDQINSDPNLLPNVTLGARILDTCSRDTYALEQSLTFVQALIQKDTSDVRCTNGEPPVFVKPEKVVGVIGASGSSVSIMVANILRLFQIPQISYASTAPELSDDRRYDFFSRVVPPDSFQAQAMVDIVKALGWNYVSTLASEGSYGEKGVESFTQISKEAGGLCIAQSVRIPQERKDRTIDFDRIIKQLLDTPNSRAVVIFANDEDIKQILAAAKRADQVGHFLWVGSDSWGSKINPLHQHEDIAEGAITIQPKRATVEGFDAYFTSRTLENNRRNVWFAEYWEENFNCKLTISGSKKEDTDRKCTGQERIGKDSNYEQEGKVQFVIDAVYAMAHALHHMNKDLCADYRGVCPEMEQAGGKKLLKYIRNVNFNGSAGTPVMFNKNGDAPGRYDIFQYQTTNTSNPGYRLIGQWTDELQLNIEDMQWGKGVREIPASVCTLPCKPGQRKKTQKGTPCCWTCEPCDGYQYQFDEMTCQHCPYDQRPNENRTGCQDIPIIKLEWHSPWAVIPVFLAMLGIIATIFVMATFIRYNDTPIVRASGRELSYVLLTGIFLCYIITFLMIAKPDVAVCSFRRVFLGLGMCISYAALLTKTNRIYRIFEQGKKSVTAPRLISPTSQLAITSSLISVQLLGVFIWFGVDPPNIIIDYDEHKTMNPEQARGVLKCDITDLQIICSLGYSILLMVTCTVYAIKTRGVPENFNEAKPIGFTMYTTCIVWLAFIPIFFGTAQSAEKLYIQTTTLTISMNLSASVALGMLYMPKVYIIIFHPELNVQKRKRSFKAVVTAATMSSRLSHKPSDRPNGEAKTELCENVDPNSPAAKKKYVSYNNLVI
Assay type: cell-based
How it was run: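 Stable CHO cell line co-expressing human mGluR7 and a CRE-luciferase reporter; compounds preincubated 15 min at 37 °C, then forskolin added and incubated 5 h at 37 °C. 10-point half-log concentration-response in duplicate, normalised to forskolin-alone (max) and forskolin plus tool mGluR7 agonist (min) controls.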
Molecule CC1c2ccccc2CC1NC(=O)[C@@H](NC(=O)OC(C)(C)C)c1ccc(F)cc1 (stereo in doubt) [Example 71, tert-butyl N—[(S)-(4-fluorophenyl)[(trans)-(1-methyl-2,3-dihydro-1H-inden-2-yl)carbamoyl]methyl]carbamate] has an EC50 of 2 nM.
COC1c2ccccc2CC1NC(=O)[C@@H](NS(C)(=O)=O)c1ccc(F)cc1 (stereo in doubt) [Example 72, (2S)-2-(4-fluorophenyl)-2-methanesulphonamido-N-(trans)-(1-methoxy-2,3-dihydro-1H-inden-2-yl)acetamide] showed an EC50 of 11 nM.
Molecule CC1c2ccccc2CC1NC(=O)[C@@H](NS(C)(=O)=O)c1ccc(F)cc1 (stereo in doubt) [Example 85, (2S)-2-(4-fluorophenyl)-2-methanesulfonamido-N-((trans)-1-methyl-2,3-dihydro-1H-inden-2-yl)acetamide] has an EC50 of 26 nM.
Work on CO[C@H](C(=O)NC1Cc2ccccc2C1S(C)(=O)=O)c1ccccc1 (stereo in doubt) [Example 149, (2S)—N-(trans)-(1-methanesulfonyl-2,3-dihydro-1H-inden-2-yl)-2-methoxy-2-phenylacetamide] yielded an EC50 of 225 nM.
Work on CCS(=O)(=O)C1c2ccccc2CC1NC(=O)[C@@H](OC)c1ccccc1 (stereo in doubt) [Example 150, (2S)—N-(trans)-(1-ethanesulfonyl-2,3-dihydro-1H-inden-2-yl)-2-methoxy-2-phenylacetamide] yielded an EC50 of 156 nM.
C[C@H](C(=O)N[C@H]1Cc2ccccc2[C@@H]1N)c1ccccc1 [Example 11, (2S)—N-[(1S,2S)-1-amino-2,3-dihydro-1H-inden-2-yl]-2-phenylpropanamide hydrochloride] was tested, and the EC50 was 119 nM.
C[C@H](C(=O)N[C@@H]1Cc2ccccc2[C@H]1N)c1ccccc1 [Example 12, (2S)—N-[(1R,2R)-1-amino-2,3-dihydro-1H-inden-2-yl]-2-phenylpropanamide] showed an EC50 of 290 nM.
CC(=O)N[C@H]1c2ccccc2C[C@@H]1NC(=O)[C@@H](C)c1ccccc1 [Example 13, (2S)—N-[(1S,2S)-1-acetamido-2,3-dihydro-1H-inden-2-yl]-2-phenylpropanamide] showed an EC50 of 1200 nM.
CCC(C(=O)N[C@H]1Cc2ccccc2[C@@H]1N)c1ccc(F)cc1F (stereo partly drawn) [Example 14, N-[(1S,2S)-1-amino-2,3-dihydro-1H-inden-2-yl]-2-(2,4-difluorophenyl)butanamide hydrochloride] showed an EC50 of 139 nM.
Work on CCC(C(=O)N[C@@H]1Cc2ccccc2[C@H]1N)c1ccc(F)cc1F (stereo partly drawn) [Example 17, N-[(1R,2R)-1-amino-2,3-dihydro-1H-inden-2-yl]-2-(2,4-difluorophenyl)butanamide hydrochloride] yielded an EC50 of 195 nM.
For C[C@H](C(=O)N[C@@H]1Cc2ccccc2[C@H]1NC(=O)OC(C)(C)C)c1ccccc1 [Example 18, tert-butyl N-[(1R,2R)-2-[(2S)-2-phenylpropanamido]-2,3-dihydro-1H-inden-1-yl]carbamate], the EC50 was 150 nM.
With CO[C@H](C(=O)N[C@H]1Cc2ccccc2[C@@H]1N)c1ccccc1 [Example 19, (2S)—N-[(1S,2S)-1-amino-2,3-dihydro-1H-inden-2-yl]-2-methoxy-2-phenylacetamide hydrochloride] the EC50 was 973 nM.
With CC(C)C(C(=O)N[C@H]1Cc2ccccc2[C@@H]1N)c1ccc(Cl)cc1 (stereo partly drawn) [Example 20, N-[(1S,2S)-1-amino-2,3-dihydro-1H-inden-2-yl]-2-(4-chlorophenyl)-3-methylbutanamide hydrochloride] the EC50 was 104 nM.
In the case of C[C@H](C(=O)N[C@H]1Cc2ccccc2[C@@H]1NC(=O)OC(C)(C)C)c1ccc(F)cc1 [Example 21, tert-butyl N-[(1S,2S)-2-[(2S)-2-(4-fluorophenyl)propanamido]-2,3-dihydro-1H-inden-1-yl]carbamate], the EC50 is reported as 28 nM.
Molecule CN[C@H]1c2ccccc2C[C@@H]1NC(=O)[C@@H](C)c1ccccc1 [Example 22, (2S)—N-[(1S,2S)-1-(methylamino)-2,3-dihydro-1H-inden-2-yl]-2-phenylpropanamide] has an EC50 of 70 nM.
C[C@H](C(=O)N[C@H]1Cc2ccccc2[C@@H]1NC(=O)OC(C)(C)C)c1ccc(F)cc1F [Example 23, tert-butyl N-[(1S,2S)-2-[(2S)-2-(2,4-difluorophenyl)propanamido]-2,3-dihydro-1H-inden-1-yl]carbamate] showed an EC50 of 18 nM.
For C[C@H](C(=O)N[C@H]1Cc2ccccc2[C@@H]1N)c1ccc(F)cc1 [Example 24, (2S)—N-[(1S,2S)-1-amino-2,3-dihydro-1H-inden-2-yl]-2-(4-fluorophenyl)propanamide], the EC50 was 66 nM.
With C[C@H](C(=O)N[C@H]1Cc2ccccc2[C@@H]1N)c1ccc(F)cc1F [Example 34, (2S)—N-[(1S,2S)-1-amino-2,3-dihydro-1H-inden-2-yl]-2-(2,4-difluorophenyl)propanamide] the EC50 was 95 nM.
In the case of C[C@H](C(=O)N[C@@H]1Cc2ccccc2[C@H]1N)c1ccc(F)cc1F [Example 35, (2S)—N-[(1R,2R)-1-amino-2,3-dihydro-1H-inden-2-yl]-2-(2,4-difluorophenyl)propanamide], the EC50 is reported as 233 nM.
With C[C@H](C(=O)N[C@H]1Cc2ccccc2[C@@H]1NCC1CCOCC1)c1ccc(F)cc1F [Example 40, (2S)-2-(2,4-difluorophenyl)-N-[(1S,2S)-1-{[(oxan-4-yl)methyl]amino}-2,3-dihydro-1H-inden-2-yl]propanamide] the EC50 was 23 nM.
CCC(C(=O)N[C@@H]1Cc2ccccc2[C@H]1NC(=O)OC(C)(C)C)c1ccc(F)cc1F (stereo partly drawn) [Example 41, tert-butyl N-[(1R,2R)-2-[2-(2,4-difluorophenyl)butanamido]-2,3-dihydro-1H-inden-1-yl]carbamate] gave an EC50 of 216 nM.
Work on CC[C@H](C(=O)N[C@H]1Cc2ccccc2[C@@H]1NC(=O)OC(C)(C)C)c1ccc(F)cc1 [Example 42, tert-butyl N-[(1S,2S)-2-[(2S)-2-(4-fluorophenyl)butanamido]-2,3-dihydro-1H-inden-1-yl]carbamate] yielded an EC50 of 13 nM.
In the case of CC[C@H](C(=O)N[C@@H]1Cc2ccccc2[C@H]1NC(=O)OC(C)(C)C)c1ccc(F)cc1 [Example 43, tert-butyl N-[(1R,2R)-2-[(2S)-2-(4-fluorophenyl)butanamido]-2,3-dihydro-1H-inden-1-yl]carbamate], the EC50 is reported as 130 nM.
C[C@H](C(=O)N[C@H]1Cc2ccccc2[C@@H]1NCC1CC1)c1ccc(F)cc1 [Example 47, (2S)—N-[(1S,2S)-1-[(cyclopropylmethyl)amino]-2,3-dihydro-1H-inden-2-yl]-2-(4-fluorophenyl)propanamide] gave an EC50 of 21 nM.
With CC[C@H](C(=O)N[C@H]1Cc2ccccc2[C@@H]1N)c1ccc(F)cc1 [Example 52, (2S)—N-[(1S,2S)-1-amino-2,3-dihydro-1H-inden-2-yl]-2-(4-fluorophenyl)butanamide] the EC50 was 53 nM.
Molecule CC[C@H](C(=O)N[C@@H]1Cc2ccccc2[C@H]1N)c1ccc(F)cc1 [Example 53, (2S)—N-[(1R,2R)-1-amino-2,3-dihydro-1H-inden-2-yl]-2-(4-fluorophenyl)butanamide] has an EC50 of 126 nM.
Molecule COc1ccc(C(C)C(=O)N[C@H]2Cc3ccccc3[C@@H]2N)cc1 (stereo partly drawn) [Example 57, N-[(1S,2S)-1-amino-2,3-dihydro-1H-inden-2-yl]-2-(4-methoxyphenyl)propanamide hydrochloride] has an EC50 of 2210 nM.
CC(C(=O)N[C@H]1Cc2ccccc2[C@@H]1N)c1ccc(C(F)(F)F)cc1 (stereo partly drawn) [Example 58, N-[(1S,2S)-1-amino-2,3-dihydro-1H-inden-2-yl]-2-[4-(trifluoromethyl)phenyl]propanamide hydrochloride] showed an EC50 of 1780 nM.
